Data reported in patent US12268727B2, “Bioactive polypeptides for improvements in plant protection, growth and productivity” (priority 2017, dated 2025).
“And” between values parts separate entries of the source, which are not always exact repeats. Equal values may be shown once. Read-outs that look alike come from different tables or passages of the source.

Experiments:
[1] = test system: squash; assay: Foliar application to squash, yield; format: in vivo; settings: Crookneck squash; for change in fruit weight vs surfactant only control / increase in weight of harvested squash fruit per plant: Bt.4Q7Flg22 2.0 Fl. oz/Ac, Gm.RHPP 3.2 Fl. oz/Ac
Text: Formulation 2 (F2) consists of the D RI Bt.4Q7 Flg22 applied with 0.01% (wv) non-ionic surfactant. […] Yield comparisons were made between the plants treated with the foliar Bt.4Q7Flg22 F1 and F2 spray applications compared to the control (water) or non-treated squash plants. Squash plants were cultivated in sandy loam soil as follows. 2.5 cm holes were cut in 2.5 ft. (0.76 m) wide plastic covered mounds, two rows per mound, holes spaced 1.5 ft (0.46 m) apart within each row. Rows were staggered within the mound. Mounds were spaced 4 ft (1.2 m) apart. Three squash seeds were planted per hole and thinned to a single plant per hole 14 days after planting. Drip irrigation tubing was laid in the center of each mound, and plants were watered as necessary.
Squash plants were grown from seed in raised beds until bloom, and foliar treated in the same Florida (FL) location using two replicated trials or two separate harvests. Yield for the foliar Bt.4Q7Flg22 applied F1 and F2 treated plants is reported as the number of squash per plant, the weight (grams) per squash and the total squash yield (lbs/Ac) and represented as a percentage change as compared to non-treated control plants (Table 31).
Yield comparisons were made between the plants treated with the polypeptides compared to surfactant only control plants, with three replicates per treatment. […] Replicates with average yield per plant 50% above or 50% below the median yield for the trial were excluded as outliers.
Squash plants were cultivated in sandy loam soil as follows. 2.5 cm holes were cut in 0.76 meters wide plastic covered mounds, two rows per mound, holes spaced 0.46 meters apart within each row. Rows were staggered within the mound. Mounds were spaced 1.2 meters apart. Three squash seeds were planted per hole and thinned to a single plant per hole 14 days after planting. Drip irrigation tubing was laid in the center of each mound, and plants were watered as necessary.

[2] = test system: corn; format: in vivo; settings: for yield advantage: third study, 10-11 sites
[3] = test system: peppers (Capsicum); assay: Foliar application to pepper, yield; format: in vivo, pepper (Capsicum); settings: for increase in average fruit weight per plant vs surfactant only: Jalapeno, pre-bloom; for combined yield average increase, RK and HHW varieties: first flower
Description: Foliar treatments of Bt.4Q7 Flg22 and Ec.Flg22 bioactive priming polypeptides were applied using small scale plots designed to simulate commercial growing conditions for peppers (Capsicum). Two varieties of pepper: Red Knight (RK) and Hungarian Hot Wax (HHW) were grown from 6-week old transplants in raised beds covered with black plastic mulch that had good water-holding characteristics and a pH of 5.8-6.6. Plants were grown using drip irrigation and fertilizer applied following grower guidelines throughout the growing season to ensure optimum plant growth and yields. Small raised bed plots were designed to simulate the planting densities used by commercial growers that generally plant approximately 10,000-14,000 plants per acre in double rows 14-18 inches (35.6 to 46 cm) apart on plastic mulched beds with 16-24 inches (40.6 to 61 cm) between plants in the row and with the beds spaced 5.0-6.5 feet ([…]) apart from their centers. A single row of peppers also can be planted on each bed (5,000-6,500 plants per acre or 12,355-16,062 plants per hectare).
Effects of the foliar applications on pepper yield were determined for two separate harvests using a once over harvest approach and normalized to the yield of the control plants. The average percentage change in yield for each treatment over the yield for the control plants is reported as pounds/acre (lbs/Ac) in Table 29.
Foliar treatment of Gm.RHPP (SEQ ID NO: 600) was applied as an exogenous spray at the first-bloom stage to increase yield in two pepper varieties. Foliar treatment of Gm.RHPP was applied using small scale plots designed to simulate commercial growing conditions for peppers (Capsicum) as described in Example 13. Foliar applications with the Gm.RHPP bioactive priming polypeptide were applied at the first flower stage, on two varieties of pepper, Red Knight (RK) and Hungarian Hot Wax (HHW). […] Effects of the foliar applications on pepper yield were determined for two separate harvests using a once over harvest approach and normalized to the yield of the control plants. The average percentage change in yield over the yield for the control plants is reported in Table 42, as the percent change per total weight (lbs/Ac) of peppers harvested. Average percent change in yield is reported for the 2 replicate harvests (trials) for the RK and HHW pepper varieties and then as a combined average for both varieties.
Small-scale plots were designed to simulate commercial growing conditions for jalapeno peppers. Peppers were grown for 12-weeks in a controlled growth room and then transplanted outside in 2 raised beds covered with black plastic mulch that had good water-holding characteristics and in soil having a pH of 5.8-6.6. Jalapeno pepper plants were spaced 14-16 inches (38 cm) apart with 16-24 inches (50 cm) between plants containing approximately 25 plants per row bed. Plants were grown using drip irrigation and fertilizer applied following grower guidelines throughout the growing season to provide optimum conditions for plant growth. The raised bed plots were designed to simulate the planting densities used by commercial growers that generally plant approximately plants per acre (5,000-6,500 plants per acre or 12,355-16,062 plants per hectare) in double rows 35.6-45.7 cm apart with the beds spaced 5.0-6.5 feet (1.52-1.98 meters) apart from their centers (Orzolek et al., “Agricultural Alternatives: Pepper Production.” University Park: Penn State Extension, 2010).

[4] = combined average of two corn hybrids, two years
[5] = foliar 0.33 Fl. oz/Ac, V5-V8, first year trials, 10 locations
[6] = foliar 0.33 Fl. oz/Ac, V8 corn Dekalb 5064, second year trials
[7] = foliar at V5, 2 hybrids, 2 IL locations with drought-like conditions, 16.7 μM, 4.0 Fl. oz/Ac
[8] = foliar at V5, 2 hybrids, 2 IL locations with drought-like conditions, 16.7 μM, 48.0 Fl. oz/Ac
[9] = 1 Fl. oz/Ac, foliar at first flower
[10] = 20 Fl. oz/Ac, foliar at first flower
[11] = Bt.4Q7Flg22 2 Fl. oz/Ac, Gm.RHPP 3.2 Fl. oz/Ac
[12] = V5 corn, 8.0 Fl. oz/Ac, 6 locations combined
[13] = foliar at V5, 100 μM, 8.0 Fl. oz/Ac, 6 US Midwest locations
[14] = Jalapeno pepper, foliar at early bloom, 100 μM, 3.2 fl oz/Ac
[15] = foliar 1 Fl. oz/Ac at first flower, vs water control, 2 harvests

Substance: Bt.4Q7Flg22: Flg22 polypeptide (22 amino acids) from flagellin of Bacillus thuringiensis strain 4Q7 (DRLSSGKRINSASDDAAGLAIA; listed as Bacillus thuringiensis)
- change in fruit weight vs surfactant only control [1]: 4.4%
- increase in weight of harvested squash fruit per plant [1]: 31.7 grams
- average yield change vs STRATEGO YLD fungicide alone ([2]; V5 corn, 2 hybrids, 2 locations Iowa, applied with STRATEGO YLD 4.0 Fl. oz/Ac): 5.50 Bu/Ac
- increase in yield vs base seed treatment + surfactant control ([2]; V5 corn, 3 DEKALB hybrids, 6-8 locations, 4.0 Fl. oz/Ac): 1.14 Bu/Ac
- yield increase over non-treated control ([2]; V8 corn Dekalb 5064, 6 locations, Bt.4Q7Flg22 0.33 Fl. oz/Ac, STRATEGO YLD 4.0 Fl. oz/Ac): 4.84 Bu/Ac
- 2-year average yield increase [2, 4]: 8.0 Bu/Ac
- win rate, multiple year [2, 4]: 86%
- yield increase over surfactant control ([2]; drought-like conditions, 2 hybrids, 2 IL locations, 16.7 μM at 4.0 Fl. oz/Ac, cellobiose 320 mM where combined): 3.70 Bu/Ac
- yield increase over control ([2]; drought-like conditions, V5-V7, highest use rate): ~27 Bu/Ac
- average yield increase vs non-treated control [2, 5]: 11.60 Bu/Ac and > 11 Bu/Ac
- win rate [2, 5]: 90%
- average yield increase over control [2, 6]: 4.8 Bu/Ac and ~5 Bu/Ac
- win rate [2, 6]: 83%
- Average Change in Yield (Bu/Ac) compared to Surfactant control [2, 7]: +3.70 Bu/Ac
- Average Yield Bu/Ac [2, 7]: 96.46 Bu/Ac
- Average Change in Yield (Bu/Ac) compared to Surfactant control [2, 8]: +26.61 Bu/Ac
- Average Yield Bu/Ac [2, 8]: 119.37 Bu/Ac
- Average Total Yield Bu/Ac (6 locations) ([2]; foliar at V8, corn hybrid Dekalb 5064, Bt.4Q7Flg22 0.33 Fl. oz/Ac, STRATEGO YLD 4.0 Fl. oz/Ac): 192.21 Bu/Ac
- Average Bu/Ac Increase compared to Control ([2]; foliar at V8, corn hybrid Dekalb 5064, Bt.4Q7Flg22 0.33 Fl. oz/Ac, STRATEGO YLD 4.0 Fl. oz/Ac, 6 locations): +4.84 Bu/Ac
- yield advantage ([2]; V5-V8, 0.33 Fl. oz/Ac (25 nM)): 5.75 Bu/Ac
- yield advantage ([2]; V5-V8, 4 Fl. oz/Ac (300 nM)): 3.77 Bu/Ac
- yield advantage ([2]; V5-V8, 8 Fl. oz/Ac (600 nM)): 5.05 Bu/Ac
- Avg. Percent Change Yield Total Weight (lbs/Ac) (Hungarian Hot Wax) 2 Replicate Trials [3, 9]: +77%
- Avg. Percent Change Yield Total Weight (lbs/Ac) Red Knight 2 Replicate Trials [3, 9]: +29%
- Combined Avg. Percent Change Yield Total Number (lbs/Ac) RK and HHW [3, 9]: +53%
- Avg. Percent Change Yield Total Weight (lbs/Ac) (Hungarian Hot Wax) 2 Replicate Trials [3, 10]: +42%
- Avg. Percent Change Yield Total Weight (lbs/Ac) Red Knight 2 Replicate Trials [3, 10]: +8%
- Combined Avg. Percent Change Yield Total Number (lbs/Ac) RK and HHW [3, 10]: +25%
- increase in average fruit weight per plant vs surfactant only ([3]; 4 Fl. oz/Ac): 40%
- increase in average fruit weight per plant vs surfactant only [3, 11]: 49%
- combined yield average increase, RK and HHW varieties ([3]; high rate 20 Fl. oz/Ac): 25%
- combined yield average increase, RK and HHW varieties ([3]; low rate 1 Fl. oz/Ac): 53%
- yield increase over control, HHW variety ([3]; high rate 20 Fl. oz/Ac): 42%
- yield increase over control, HHW variety ([3]; low rate 1 Fl. oz/Ac): 77% and 72%

Substance: GGIRAAPTGNER (Glycine max) [RHPP, Root Hair Promoting Peptide from Glycine max]
- Average squash fruit weight (grams) per plant ([1]; foliar at first bloom, Bt.4Q7Flg22 16.7 μM 2 fl oz/Ac, Gm.RHPP 100 μM 3.2 fl oz/Ac, two harvests): 748.4 grams
- Percentage Change in Fruit Weight Compared to Surfactant only control ([1]; foliar at first bloom, Bt.4Q7Flg22 2 fl oz/Ac, Gm.RHPP 3.2 fl oz/Ac): +4.4%
- change in fruit weight vs surfactant only control [1]: 4.4%
- increase in weight of harvested squash fruit per plant [1]: 31.7 grams
- average yield [2, 12]: more than 209 Bu/Ac
- yield increase vs surfactant control [2, 12]: 3.52 Bu/Ac
- Average Change in Bu/Ac compared to surfactant only control [2, 13]: (+3.52; Bu/Ac
- Average Yield Bu/Ac [2, 13]: 209.67 Bu/Ac
- win rate ([2]; foliar at V5, 100 μM, 8.0 Fl. oz/Ac, vs surfactant only control): 64%
- increase in yield vs control, combined average of both varieties ([3]; 1 Fl. oz/Ac): 67%
- increase in yield vs control ([3]; 1 Fl. oz/Ac, HHW peppers): 46%
- increase in yield vs control ([3]; 1 Fl. oz/Ac, RK peppers): 87%
- Average Fruit Weight (grams) per Plant [3, 14]: 156.6 grams
- Percentage Change in Fruit Weight Compared to Surfactant Control [3, 14]: +27%
- increase in average fruit weight per plant vs surfactant only [3, 11]: 27%
- Avg. Percent Change Yield Total Weight (lbs/Ac) Hungarian Hot Wax [3, 15]: +46%
- Avg. Percent Change Yield Total Weight (lbs/Ac) Red Knight [3, 15]: +87%
- Combined Avg. Percent Change Yield Total Number (lbs/Ac) RK and HHW ([3]; foliar 1 Fl. oz/Ac at first flower, vs water control, both varieties): +67%
